# Measured values taken from patent US20220324835A1 (Nurix Therapeutics, Inc., priority 2018, published 2022).
# Tests used:
# [1] = target: T1, Cbl-b (Homo sapiens, UniProt Q13191); experiment: Cbl-b inhibition assay (Cbl-b activity assay, FRET, Biological Example 1; 100 mM NaCl, 60 nM Src kinase); assay type: biochemical; settings: upper bound stated in text lists; read-out: IC50 values in the Cbl-b inhibition assay of Biological Example 1
# In short: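 Steps: Src kinase phosphorylates N-terminal biotinylated Avi-tagged Cbl-b; phosphorylated Cbl-b binds Bodipy-fluorescein ubiquitin-loaded UbcH5B; streptavidin-terbium on Cbl-b sits close to the fluorescein label, producing FRET. Inhibitors block UbcH5B-Ub binding.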
# [2] = tested on: T-cell; experiment: IL-2 secretion from T-cells co-stimulated with anti-CD3 and anti-CD28 antibody (Biological Example 2); assay type: cell-based, human; settings: Homo sapiens, T-cell, fold change over baseline (anti-CD3/anti-CD28 stimulated T-cells without inhibitor), read-out: IL-2 secretion Anti-CD3/Anti-CD28 stimulation; for fold induction at 0.3 µM: 0.3 μM Cbl-b inhibitor; for fold induction at 1 µM: 1 μM Cbl-b inhibitor
# In short: (§1)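 T-cells were stimulated with anti-CD3 antibody alone or with anti-CD28 antibody, in the presence or absence of Cbl-b inhibitor. IL-2 secretion or CD25 surface staining was measured, and values expressed as fold over the uninhibited baseline […].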
# [3] = tested on: T-cell; experiment: IL-2 secretion from T-cells stimulated with anti-CD3 antibody alone (Biological Example 2); assay type: cell-based, human; settings: Homo sapiens, T-cell; 1 μM Cbl-b inhibitor; fold change over baseline (anti-CD3/anti-CD28 stimulated T-cells without inhibitor); read-out: IL-2 secretion Anti-CD3 stimulation
# [4] = tested on: T-cell; experiment: CD25 cell surface staining on T-cells co-stimulated with anti-CD3 and anti-CD28 antibody (Biological Example 2); assay type: cell-based, human; settings: Homo sapiens, T-cell, fold change over baseline (anti-CD3/anti-CD28 stimulated T-cells without inhibitor), read-out: CD25 staining Anti-CD3/Anti-CD28 stimulation; for fold induction at 0.3 µM: 0.3 μM Cbl-b inhibitor; for fold induction at 1 µM: 1 μM Cbl-b inhibitor
# In short: as §1
# [5] = tested on: T-cell; experiment: CD25 cell surface staining on T-cells stimulated with anti-CD3 antibody alone (Biological Example 2); assay type: cell-based, human; settings: Homo sapiens, T-cell; 1 μM Cbl-b inhibitor; fold change over baseline (anti-CD3/anti-CD28 stimulated T-cells without inhibitor); read-out: CD25 staining Anti-CD3 stimulation
# [6] = target: T1, Cbl-b; experiment: Cbl-b activity assay (Cbl-b inhibition assay), TR-FRET of Cbl-b interaction with UbcH5B-Ub; assay type: biochemical; settings: assay buffer with 100 mM NaCl, 60 nM Src kinase; read-out: Cbl-b activity IC50
# In short: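 UbcH5B (C85K) conjugated to N-terminally Bodipy-Fluorescein-labeled ubiquitin served as the fluorescent partner. After compound preincubation, Src kinase (60 nM) with 1 mM ATP and 5 mM MgCl2 (final) was added for 1.5 h, followed by a further 1 h incubation. Some values were obtained with 50 mM NaCl and 30 nM Src.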
# T1 sequence (Q13191 36-427): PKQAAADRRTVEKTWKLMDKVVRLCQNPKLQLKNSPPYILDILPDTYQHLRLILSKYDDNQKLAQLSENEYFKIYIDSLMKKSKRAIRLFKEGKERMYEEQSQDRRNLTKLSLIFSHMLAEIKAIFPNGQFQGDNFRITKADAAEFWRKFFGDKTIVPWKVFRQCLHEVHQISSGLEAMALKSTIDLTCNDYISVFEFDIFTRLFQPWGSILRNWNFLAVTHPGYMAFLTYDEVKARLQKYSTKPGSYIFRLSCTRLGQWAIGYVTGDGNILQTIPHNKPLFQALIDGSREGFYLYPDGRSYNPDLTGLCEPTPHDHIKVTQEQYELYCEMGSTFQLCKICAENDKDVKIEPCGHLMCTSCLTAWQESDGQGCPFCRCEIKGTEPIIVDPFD
Compound,IC50 [1],fold induction at 0.3 µM [2],fold induction at 1 µM [2],fold induction at 1 µM [3],fold induction at 0.3 µM [4],fold induction at 1 µM [4],fold induction at 1 µM [5],IC50 [6]
"Cn1cnnc1[C@@H](F)C1(c2cccc(N3Cc4c(cc(CN5CCCC5)cc4C(F)(F)F)C3=O)c2)COC1 [Example 673a, (S)-2-(3-(3-(fluoro(4-methyl-4H-1,2,4-triazol-3-yl)methyl)oxetan-3-yl)phenyl)-6-(pyrrolidin-1-ylmethyl)-4-(trifluoromethyl)isoindolin-1-one]",≤ 0.1 µM,5 to 7.5,> 7.5,> 0.201,> 1.76,> 1.76,0.801 to 1,< 0.1 µM
"Cn1cnnc1[C@H](F)C1(c2cccc(N3Cc4c(cc(CN5CCCC5)cc4C(F)(F)F)C3=O)c2)COC1 [Example 673b, (R)-2-(3-(3-(fluoro(4-methyl-4H-1,2,4-triazol-3-yl)methyl)oxetan-3-yl)phenyl)-6-(pyrrolidin-1-ylmethyl)-4-(trifluoromethyl)isoindolin-1-one]",≤ 0.1 µM,> 7.5,> 7.5,> 0.201,1.31 to 1.5,1.31 to 1.5,> 1,< 0.1 µM
"Cn1cnnc1[C@@H](F)C1(c2cccc(N3Cc4c(cc(CN5CCCCC5)cc4C(F)(F)F)C3=O)c2)COC1 [Example 674a, (S)-2-(3-(3-(fluoro(4-methyl-4H-1,2,4-triazol-3-yl)methyl)oxetan-3-yl)phenyl)-6-(piperidin-1-ylmethyl)-4-(trifluoromethyl)isoindolin-1-one]",≤ 0.1 µM,> 7.5,> 7.5,0.101 to 0.15,1.31 to 1.5,1.51 to 1.75,> 1,< 0.1 µM
"Cn1cnnc1[C@H](F)C1(c2cccc(N3Cc4c(cc(CN5CCCCC5)cc4C(F)(F)F)C3=O)c2)COC1 [Example 674b, (R)-2-(3-(3-(fluoro(4-methyl-4H-1,2,4-triazol-3-yl)methyl)oxetan-3-yl)phenyl)-6-(piperidin-1-ylmethyl)-4-(trifluoromethyl)isoindolin-1-one]",≤ 0.1 µM,> 7.5,> 7.5,> 0.201,1.01 to 1.3,1.01 to 1.3,> 1,< 0.1 µM
"Cn1cnnc1[C@@H](F)C1(c2cccc(N3Cc4c(cc(CN5C6CCCC5CC6)cc4C(F)(F)F)C3=O)c2)COC1 [Example 675a, 6-((8-azabicyclo[3.2.1]octan-8-yl)methyl)-2-(3-(3-((S)-fluoro(4-methyl-4H-1,2,4-triazol-3-yl)methyl)oxetan-3-yl)phenyl)-4-(trifluoromethyl)isoindolin-1-one]",≤ 0.1 µM,2.51 to 5,5 to 7.5,0.101 to 0.15,1.01 to 1.3,1.31 to 1.5,> 1,< 0.1 µM
"Cn1cnnc1[C@H](F)C1(c2cccc(N3Cc4c(cc(CN5C6CCCC5CC6)cc4C(F)(F)F)C3=O)c2)COC1 [Example 675b, 6-((8-azabicyclo[3.2.1]octan-8-yl)methyl)-2-(3-(3-((R)-fluoro(4-methyl-4H-1,2,4-triazol-3-yl)methyl)oxetan-3-yl)phenyl)-4-(trifluoromethyl)isoindolin-1-one]",≤ 0.1 µM,> 7.5,> 7.5,> 0.201,1.31 to 1.5,1.31 to 1.5,> 1,< 0.1 µM
"Cc1cc(C(=O)Nc2cccc(C3(C(F)(F)c4nncn4C)COC3)c2)nc(C2CC2)n1 [Example 676, 2-cyclopropyl-N-(3-(3-(difluoro(4-methyl-4H-1,2,4-triazol-3-yl)methyl)oxetan-3-yl)phenyl)-6-methylpyrimidine-4-carboxamide]",≤ 0.1 µM,2.51 to 5,5 to 7.5,0.101 to 0.15,1.01 to 1.3,1.31 to 1.5,0.801 to 1,< 0.1 µM
"Cc1cc2c(c(C3CC3)n1)CN(c1cccc(C3(C(F)(F)c4nncn4C)COC3)c1)C2=O [Example 677, 4-cyclopropyl-2-(3-(3-(difluoro(4-methyl-4H-1,2,4-triazol-3-yl)methyl)oxetan-3-yl)phenyl)-6-methyl-2,3-dihydro-1H-pyrrolo[3,4-c]pyridin-1-one]",≤ 1 µM,1.01 to 2.5,1.01 to 2.5,0.051 to 0.1,1.01 to 1.3,1.01 to 1.3,0.601 to 0.8,0.301 to 1 µM
"Cn1cnnc1C(F)(F)C1(c2cccc(N3Cc4c(cc(CN5CC(F)C5)cc4C(F)(F)F)C3=O)c2)COC1 [Example 679, 2-(3-(3-(difluoro(4-methyl-4H-1,2,4-triazol-3-yl)methyl)oxetan-3-yl)phenyl)-6-((3-fluoroazetidin-1-yl)methyl)-4-(trifluoromethyl)isoindolin-1-one]",≤ 0.1 µM,2.51 to 5,5 to 7.5,0.101 to 0.15,1.01 to 1.3,1.01 to 1.3,> 1,< 0.1 µM
"C[C@H](Cc1nncn1C)c1cc(C2CC2)nc(N2Cc3c(cccc3C(F)(F)F)C2=O)c1 [Example 680, (R)-2-(6-cyclopropyl-4-(1-(4-methyl-4H-1,2,4-triazol-3-yl)propan-2-yl)pyridin-2-yl)-4-(trifluoromethyl)isoindolin-1-one]",≤ 0.1 µM,1.01 to 2.5,2.51 to 5,0.101 to 0.15,1.01 to 1.3,1.01 to 1.3,0.801 to 1,< 0.1 µM
"C[C@H](Cc1nncn1C)c1cc(N2Cc3c(cccc3C(F)(F)F)C2=O)nc(C2(C)CC2)c1 [Example 681, (R)-2-(4-(1-(4-methyl-4H-1,2,4-triazol-3-yl)propan-2-yl)-6-(l-methylcyclopropyl)pyridin-2-yl)-4-(trifluoromethyl)isoindolin-1-one]",≤ 1 µM,1.01 to 2.5,1.01 to 2.5,0.051 to 0.1,1.01 to 1.3,1.01 to 1.3,< 0.6,0.301 to 1 µM
"C[C@H](Cc1nncn1C)c1cc(-c2cncs2)nc(N2Cc3c(cccc3C(F)(F)F)C2=O)c1 [Example 682, (R)-2-(4-(1-(4-methyl-4H-1,2,4-triazol-3-yl)propan-2-yl)-6-(thiazol-5-yl)pyridin-2-yl)-4-(trifluoromethyl)isoindolin-1-one]",≤ 1 µM,1.01 to 2.5,1.01 to 2.5,0.051 to 0.1,1.01 to 1.3,1.01 to 1.3,< 0.6,0.301 to 1 µM
